18 compounds from PubChem BioAssay AID256 (DTP/NCI, 2004) can be followed below.

The test relates to CD2F1 mice, L1210 leukemia ip, survival T/C. The test can be described thus: NCI In Vivo Anticancer Drug Screen. Data for tumor model L1210 Leukemia (intraperitoneal) in CD2F1 (CDF1) mice. The note with it: higher = longer survival. A digest of the protocol: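 Antitumor effect is scored in animals hosting a serially transplanted tumor. Values compare compound-dosed animals against vehicle-only controls as a simple quotient.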

The mark [1] stands for this setting: endpoint: mean survival time, dose: 100.0 mg/kg/injection, schedule: Q04DX003 (ip), vehicle: saline with Tween-80.
Where [2] appears, read: endpoint: mean survival time, dose: 200.0 mg/kg/injection, schedule: Q04DX003 (ip), vehicle: saline with Tween-80.
Setting [3] is: endpoint: mean survival time, dose: 400.0 mg/kg/injection, schedule: Q04DX003 (ip), vehicle: saline with Tween-80.
[4] abbreviates: endpoint: mean survival time, dose: 100.0 mg/kg/injection, schedule: Q04DX003 (ip), vehicle: other.
Where [5] appears, read: endpoint: mean survival time, dose: 200.0 mg/kg/injection, schedule: Q04DX003 (ip), vehicle: other.
Where [6] appears, read: endpoint: mean survival time, dose: 400.0 mg/kg/injection, schedule: Q04DX003 (ip), vehicle: other.
[7] abbreviates: endpoint: mean survival time, dose: 100.0 mg/kg/injection, schedule: Q01DX009 (ip), vehicle: saline with Tween-80.
[8] abbreviates: endpoint: mean survival time, dose: 200.0 mg/kg/injection, schedule: Q01DX009 (ip), vehicle: saline with Tween-80.
Where [9] appears, read: endpoint: mean survival time, dose: 400.0 mg/kg/injection, schedule: Q01DX009 (ip), vehicle: saline with Tween-80.
The mark [10] stands for this setting: endpoint: median survival time, dose: 25.0 mg/kg/injection, schedule: Q01DX009 (ip), vehicle: saline with Tween-80.
Setting [11] is: endpoint: median survival time, dose: 50.0 mg/kg/injection, schedule: Q01DX009 (ip), vehicle: saline with Tween-80.
Setting [12] is: endpoint: median survival time, dose: 100.0 mg/kg/injection, schedule: Q01DX009 (ip), vehicle: saline with Tween-80.

Several values for one entry are separate records, joined by “and”; a condition that tells them apart may be missing. Equal entries are not always repeated. Inconclusive results and toxic doses are left out.

Take `Oc1ccc2ccccc2c1Cc1ccccc1`: the T/C is, setting by setting: under setting [1], 101 % of control; under setting [2], 97 % of control; under setting [3], 98 % of control.

For the compound `S=c1[nH]c2ccccc2nc1NCc1ccccc1`, the T/C is, setting by setting: under setting [4], 91 % of control; under setting [5], 93 % of control; under setting [6], 93 % of control.

For the compound `COc1ccc(CNC(C#N)c2ccccc2)cc1OC` (centres undefined), the T/C is, setting by setting: under setting [7], 97 % of control; under setting [8], 104 % of control; under setting [9], 97 % of control.

Turning to `CC12CCC3C(CC=C4CC(SC(=N)N)CCC43C)C1CCC2=O` (centres undefined), the T/C runs as follows: (endpoint: mean survival time, dose: 75.0 mg/kg/injection, schedule: Q01DX001 (ip), vehicle: steriod suspending solution) 90 % of control; (endpoint: mean survival time, dose: 150.0 mg/kg/injection, schedule: Q01DX001 (ip), vehicle: steriod suspending solution) 98 % of control; (endpoint: mean survival time, dose: 300.0 mg/kg/injection, schedule: Q01DX001 (ip), vehicle: steriod suspending solution) 98 % of control.

As to `OC1c2ccccc2CCc2ccccc21`, the T/C was 97 % of control (endpoint: mean survival time, dose: 25.0 mg/kg/injection, schedule: Q04DX003 (ip), vehicle: saline with Tween-80); 103 % of control (endpoint: mean survival time, dose: 50.0 mg/kg/injection, schedule: Q04DX003 (ip), vehicle: saline with Tween-80); 101 % of control under setting [1].

For `CC(=O)OCC(OC(C)=O)C(OC(C)=O)C(OC(C)=O)C(COC(=O)c1ccccc1)OC(=O)c1ccccc1` (centres undefined), the T/C (endpoint: mean survival time, dose: 100.0 mg/kg/injection, schedule: Q01DX001 (ip), vehicle: saline with Tween-80) was 96 % of control; the T/C (endpoint: mean survival time, dose: 200.0 mg/kg/injection, schedule: Q01DX001 (ip), vehicle: saline with Tween-80) was 100 % of control; the T/C (endpoint: mean survival time, dose: 400.0 mg/kg/injection, schedule: Q01DX001 (ip), vehicle: saline with Tween-80) is 96 % of control.

With `O=C(CC(C(=O)c1ccccc1)c1ccccc1)c1ccccc1` (centres undefined), the T/C (endpoint: mean survival time, dose: 100.0 mg/kg/injection, schedule: Q01DX001 (ip), vehicle: Klucel (hydroxypropylcellulose) (HPC)) was 90 % of control; the T/C (endpoint: mean survival time, dose: 200.0 mg/kg/injection, schedule: Q01DX001 (ip), vehicle: Klucel (hydroxypropylcellulose) (HPC)) was 101 % of control; the T/C (endpoint: mean survival time, dose: 400.0 mg/kg/injection, schedule: Q01DX001 (ip), vehicle: Klucel (hydroxypropylcellulose) (HPC)) is 98 % of control.

With `O=C1c2ccccc2C(Cl)(c2ccc(Cl)cc2)c2ccc(Cl)cc21` (centres undefined), the T/C under setting [10] was 111 % of control, the T/C under setting [11] was 112 % of control and the T/C under setting [12] is 111 % of control.

Turning to `CN(C)c1ccc(Cc2ccc(N(C)C)cc2)cc1`, the T/C by setting is: under setting [1], 96 % of control; under setting [2], 100 % of control; under setting [3], 93 % of control.

Regarding `CNc1nc(N(C)C)nc(N(C)C)n1`, the T/C (endpoint: mean survival time, dose: 6.25 mg/kg/injection, schedule: Q01DX009 (ip), vehicle: saline) was 97 % of control; the T/C (endpoint: mean survival time, dose: 6.25 mg/kg/injection, schedule: Q01DX009 (ip), vehicle: water) was 107 % of control; the T/C (endpoint: mean survival time, dose: 12.5 mg/kg/injection, schedule: Q01DX009 (ip), vehicle: saline) was 97 % of control; the T/C (endpoint: mean survival time, dose: 12.5 mg/kg/injection, schedule: Q01DX009 (ip), vehicle: water) is 104 % of control; the T/C (endpoint: mean survival time, dose: 25.0 mg/kg/injection, schedule: Q01DX009 (ip), vehicle: saline) was 100 % of control; the T/C (endpoint: mean survival time, dose: 25.0 mg/kg/injection, schedule: Q01DX009 (ip), vehicle: water) was 104 % of control. The T/C reads like this: (endpoint: mean survival time, dose: 50.0 mg/kg/injection, schedule: Q01DX009 (ip), vehicle: saline) 101 % of control; (endpoint: mean survival time, dose: 50.0 mg/kg/injection, schedule: Q01DX009 (ip), vehicle: water) 110 % of control; (endpoint: mean survival time, dose: 100.0 mg/kg/injection, schedule: Q01DX009 (ip), vehicle: saline) 111 % of control; (endpoint: mean survival time, dose: 100.0 mg/kg/injection, schedule: Q01DX009 (ip), vehicle: water) 119 % of control.

Regarding `CC(=O)Oc1ccc(N2C(=O)C=CC2=O)cc1` (tested in a mixture with another compound), the T/C is, setting by setting: under setting [7], 95 % of control; under setting [1], 91 % of control; under setting [8], 91 % of control; under setting [2], 90 % of control; under setting [9], 91 % of control; under setting [3], 87 % of control.

Regarding `CCCC(=O)c1cccc([N+](=O)[O-])c1`, the T/C is 96 % of control (endpoint: mean survival time, dose: 100.0 mg/kg/injection, schedule: Q01DX001 (ip), vehicle: other); 98 % of control (endpoint: mean survival time, dose: 100.0 mg/kg/injection, schedule: Q04DX002 (ip), vehicle: other); 103 % of control under setting [4]; 93 % of control (endpoint: mean survival time, dose: 200.0 mg/kg/injection, schedule: Q01DX001 (ip), vehicle: other); 100 % of control (endpoint: mean survival time, dose: 200.0 mg/kg/injection, schedule: Q04DX002 (ip), vehicle: other); 100 % of control under setting [5]. Besides, the T/C is 94 % of control (endpoint: mean survival time, dose: 400.0 mg/kg/injection, schedule: Q01DX001 (ip), vehicle: other); 98 % of control (endpoint: mean survival time, dose: 400.0 mg/kg/injection, schedule: Q04DX002 (ip), vehicle: other); 101 % of control under setting [6]; 91 % of control and 94 % of control and 95 % of control (endpoint: mean survival time, dose: 800.0 mg/kg/injection, schedule: Q01DX009 (ip), vehicle: other).

In the case of `COc1ccc(C#N)c([N+](=O)[O-])c1`, the T/C under setting [1] is 95 % of control and the T/C under setting [2] was 114 % of control.

Consider `COc1cc(C(=O)NC(=S)Nc2ccc3ccccc3c2)cc(OC)c1OC`, for which the T/C by setting is: under setting [7], 90 % of control; under setting [8], 94 % of control.

Take `C/C(Cl)=C\CNc1ncnc2c1ncn2C1OC(CO)C(O)C1O` (centres undefined): the T/C is 103 % of control (endpoint: mean survival time, dose: 6.25 mg/kg/injection, schedule: Q01DX005 (ip), vehicle: distilled water + Tween-80); 101 % of control (endpoint: mean survival time, dose: 12.5 mg/kg/injection, schedule: Q01DX005 (ip), vehicle: distilled water + Tween-80); 91 % of control (endpoint: mean survival time, dose: 25.0 mg/kg/injection, schedule: Q01DX005 (ip), vehicle: distilled water + Tween-80); 100 % of control (endpoint: mean survival time, dose: 50.0 mg/kg/injection, schedule: Q01DX005 (ip), vehicle: distilled water + Tween-80); 101 % of control (endpoint: mean survival time, dose: 100.0 mg/kg/injection, schedule: Q01DX005 (ip), vehicle: distilled water + Tween-80).

As to `CC(=O)N(C)O`, the T/C (endpoint: median survival time, dose: 12.5 mg/kg/injection, schedule: Q01DX009 (ip), vehicle: saline with Tween-80) was 102 % of control; the T/C under setting [10] is 102 % of control and 103 % of control; the T/C under setting [11] is 102 % of control and 103 % of control; the T/C under setting [12] was 106 % of control; the T/C (endpoint: median survival time, dose: 200.0 mg/kg/injection, schedule: Q01DX009 (ip), vehicle: saline with Tween-80) was 156 % of control; the T/C (endpoint: median survival time, dose: 400.0 mg/kg/injection, schedule: Q01DX009 (ip), vehicle: saline with Tween-80) was 176 % of control.

`[Cl][Pt+2][Cl].[NH-]c1cc(Cl)c(Cl)cc1[NH-]`: the T/C is, setting by setting: (endpoint: mean survival time, dose: 2.5 mg/kg/injection, schedule: Q01DX009 (ip), vehicle: saline with Tween-80) 107 % of control; (endpoint: mean survival time, dose: 5.0 mg/kg/injection, schedule: Q01DX009 (ip), vehicle: saline with Tween-80) 105 % of control; (endpoint: mean survival time, dose: 10.0 mg/kg/injection, schedule: Q01DX009 (ip), vehicle: saline with Tween-80) 111 % of control; (endpoint: mean survival time, dose: 20.0 mg/kg/injection, schedule: Q01DX009 (ip), vehicle: saline with Tween-80) 106 % of control and 112 % of control; (endpoint: mean survival time, dose: 40.0 mg/kg/injection, schedule: Q01DX009 (ip), vehicle: saline with Tween-80) 105 % of control and 112 % of control; (endpoint: mean survival time, dose: 80.0 mg/kg/injection, schedule: Q01DX009 (ip), vehicle: saline with Tween-80) 110 % of control. For the same compound, the T/C is, setting by setting: (endpoint: mean survival time, dose: 160.0 mg/kg/injection, schedule: Q01DX009 (ip), vehicle: saline with Tween-80) 104 % of control; (endpoint: mean survival time, dose: 320.0 mg/kg/injection, schedule: Q01DX009 (ip), vehicle: saline with Tween-80) 107 % of control.

In the case of `Clc1cc(Cl)cc(-c2cc(Cl)cc(Cl)c2)c1`, the T/C (endpoint: mean survival time, dose: 100.0 mg/kg/injection, schedule: Q01DX001 (ip), vehicle: carboxymethylcellulose (CMC)) is 101 % of control; the T/C (endpoint: mean survival time, dose: 200.0 mg/kg/injection, schedule: Q01DX001 (ip), vehicle: carboxymethylcellulose (CMC)) is 92 % of control; the T/C (endpoint: mean survival time, dose: 400.0 mg/kg/injection, schedule: Q01DX001 (ip), vehicle: carboxymethylcellulose (CMC)) was 95 % of control.
